Like-named read-outs stand apart in the source and are kept apart here.

Holding throughout (test): cell-based
For test [1], the target named is T1, CAT1 (cationic amino acid transporter 1, CAT1/SLC7A1) (Homo sapiens, UniProt P30825).
T1 construct: full-length human transporter stably transfected in HEK cells (HEK-CAT1); net uptake against HEK-VC vector control cells
Further details: species or system HEK-CAT1 (HEK293 stably transfected); Inhibition of net CAT1-mediated [3H]-L-arginine (100 uM) uptake, 5 min, scintillation counting, vector control subtracted. The settings on record: HEK293, L-arginine 100 uM as substrate; for inhibition at 20 µM: read-out: % Inhibition of L-arginine uptake at 20 µM; for inhibition at 200 µM: read-out: % Inhibition of L-arginine uptake at 200 µM. The protocol:
(§1) Uptake and inhibition assays using HEK-CAT1 and HEK-VC cells and L-arginine, L-homoarginine, and ADMA as substrates were performed using the protocol described (Strobel et al. [2012]; Chafai et al. [2017]). Briefly, after incubation, the supernatant was replaced with transport buffer containing [^3H]- L-arginine for 5 min and 2.5 min for medium containing [^3H]-L-homoarginine or [^3H]-ADMA with or without the test compound. The reference drugs were screened at concentrations of 20 µM (Figs. 1A, 2A, and 3A) and 200 µM (Figs. 1B, 2B, and 3B). […] The net uptake was determined by subtracting the total amount taken up by control cells from the amount taken up by CAT1-expressing cells, which was expressed as a percentage of the amount taken up by the control. To determine the inhibitory effects of the drugs on CAT1-mediated transport of L-arginine, L-homoarginine, or ADMA, the control was measured in the absence of the potential inhibitor. The value for the percent inhibition was calculated as: Inhibition (%) = 100 – (V/V0 ^* 100), where V and V0 are the net uptake rates (uptake into HEK-CAT1 cells—uptake into HEK-VC cells) with and without test drugs, respectively. […] Each bar represents the effect of one compound on CAT1-mediated L-arginine (100 μM) uptake as percent inhibition. Data were obtained from at least two independent experiments performed in triplicate (n = 6–9) and each test data from the independent experiment were normalized to the respective control data to get the value of percent inhibition. Negative inhibition values indicate stimulated CAT1-mediated uptake. Data were analyzed using one-way ANOVA and Dunnett’s multiple comparison test with p < 0.05. Bars showing a statistically significant inhibition or transport stimulation are shaded in black

The target of test [2] is T1, CAT1 (cationic amino acid transporter 1, CAT1/SLC7A1). On the set-up: species or system HEK-CAT1 (HEK293 stably transfected); Inhibition of net CAT1-mediated [3H]-L-homoarginine (1 uM) uptake, 2.5 min, scintillation counting, vector control subtracted. The settings on record: HEK293, L-homoarginine 1 uM as substrate; for inhibition at 20 µM: read-out: % Inhibition of L-homoarginine uptake at 20 µM; for inhibition at 200 µM: read-out: % Inhibition of L-homoarginine uptake at 200 µM. Here is the method:
as §1, with “L-homoarginine (1” for “L-arginine (100”

The target is the same in test [3]. On the set-up: species or system HEK-CAT1 (HEK293 stably transfected); Inhibition of net CAT1-mediated [3H]-ADMA (1 uM) uptake, 2.5 min, scintillation counting, vector control subtracted. The settings on record: HEK293, ADMA 1 uM as substrate; for inhibition at 20 µM: read-out: % Inhibition of ADMA uptake at 20 µM; for inhibition at 200 µM: read-out: % Inhibition of ADMA uptake at 200 µM. The protocol:
as §1, with “ADMA (1” for “L-arginine (100”

T1 sequence (P30825 whole entry): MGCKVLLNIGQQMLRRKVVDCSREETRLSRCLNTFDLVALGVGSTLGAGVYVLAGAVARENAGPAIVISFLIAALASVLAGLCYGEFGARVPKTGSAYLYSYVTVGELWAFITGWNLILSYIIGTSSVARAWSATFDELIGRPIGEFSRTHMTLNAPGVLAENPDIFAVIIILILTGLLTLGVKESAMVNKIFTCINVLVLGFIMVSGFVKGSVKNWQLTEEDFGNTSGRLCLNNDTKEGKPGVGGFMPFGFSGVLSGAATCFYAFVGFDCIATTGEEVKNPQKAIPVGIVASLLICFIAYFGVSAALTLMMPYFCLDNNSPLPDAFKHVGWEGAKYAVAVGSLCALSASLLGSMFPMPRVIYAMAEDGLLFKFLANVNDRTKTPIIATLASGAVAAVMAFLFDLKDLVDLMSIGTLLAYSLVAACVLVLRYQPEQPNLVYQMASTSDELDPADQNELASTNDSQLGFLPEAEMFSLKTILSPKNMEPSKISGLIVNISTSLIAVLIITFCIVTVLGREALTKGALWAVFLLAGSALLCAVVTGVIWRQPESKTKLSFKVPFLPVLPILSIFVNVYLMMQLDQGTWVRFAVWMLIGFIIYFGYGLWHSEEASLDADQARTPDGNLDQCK

On to `O=C(O)CCCc1ccc(N(CCCl)CCCl)cc1` [Chlorambucil], for which the inhibition (commonly the change of the read-out against control, counted positive when it falls) at 20 µM in test [1] was -23.3 ± 3.8%; in test [2], -18.6 ± 1.4%; in test [3], -5.1 ± 2.8%. Moreover, the inhibition at 200 µM is -43.3 ± 6.5% in test [1], -41.6 ± 6.4% in test [2] and 13.9 ± 4.4% in test [3].
For the compound `CCN(CC)CCCC(C)Nc1ccnc2cc(Cl)ccc12` (stereo not drawn) [Chloroquine], the inhibition at 20 µM in test [1] was -6.1 ± 1.1%; in test [2], -35.1 ± 5.2%; in test [3] it was -27 ± 16.2%. Moreover, the figures for the inhibition at 200 µM in test [1], in test [2] and in test [3] were -11.4 ± 2.6%, -54.8 ± 6.9% and -23.1 ± 8.2%, respectively.
For the compound `CN/C(=N\CCSCc1nc[nH]c1C)NC#N` [Cimetidine], the inhibition at 20 µM turned out to be 0.2 ± 7.2% in test [1], 21.9 ± 3% in test [2] and 21.9 ± 3.1% in test [3]. Moreover, the inhibition at 200 µM is -65.4 ± 5.8% in test [1], -31.2 ± 1.3% in test [2] and 1.1 ± 2.5% in test [3].
With `CN(C)CCCC1(c2ccc(F)cc2)OCc2cc(C#N)ccc21` (stereo not drawn) [Citalopram], the results for the inhibition at 20 µM in test [1], in test [2] and in test [3] were -16.7 ± 9.2%, 8.8 ± 3.3% and 8.8 ± 3.3%, respectively. The inhibition at 200 µM is 42.8 ± 4.1% in test [1], 29.6 ± 3.1% in test [2] and -15.6 ± 8.1% in test [3].
On to `CC[C@H]1OC(=O)[C@H](C)[C@@H](O[C@H]2C[C@@](C)(OC)[C@@H](O)[C@H](C)O2)[C@H](C)[C@@H](O[C@@H]2O[C@H](C)C[C@H](N(C)C)[C@H]2O)[C@](C)(OC)C[C@@H](C)C(=O)[C@H](C)[C@@H](O)[C@]1(C)O` [Clarithromycin], for which the inhibition at 20 µM was -16.8 ± 2.1% in test [1], -2.4 ± 2.1% in test [2] and -3.9 ± 5.3% in test [3]. Further, the inhibition at 200 µM in test [1] is -14.3 ± 6.2%; in test [2] it was -13.6 ± 3.3%; in test [3], -72.9 ± 1.6%.
`CN(C)CCCN1c2ccccc2CCc2ccc(Cl)cc21` [Clomipramine]: the inhibition at 20 µM is -4.1 ± 0.9% in test [1], -4.5 ± 0.7% in test [2] and 18 ± 3.1% in test [3]. Besides, the inhibition at 200 µM was -12.8 ± 4.8% in test [1], -12.2 ± 3.9% in test [2] and 14 ± 1.9% in test [3].
As for `C[C@@H]1CCC[C@H](C)N1NC(=O)c1ccc(Cl)c(S(N)(=O)=O)c1` [Clopamide], the values for the inhibition at 20 µM in test [1], in test [2] and in test [3] were 4.5 ± 1.9%, -14.3 ± 2.1% and -11.1 ± 2.3%, respectively. Further, the inhibition at 200 µM in test [1] amounted to 23.4 ± 2.5%; in test [2] it was 14.3 ± 2.2%; in test [3], 11.6 ± 6.5%.
As to `COC(=O)[C@H](c1ccccc1Cl)N1CCc2sccc2C1` [Clopidogrel], the inhibition at 20 µM is 6.4 ± 4.4% in test [1], 1.9 ± 5.4% in test [2] and -11 ± 8.1% in test [3]. Moreover, the inhibition at 200 µM in test [1] is 1.5 ± 4.1%; in test [2], 0.8 ± 3.1%; in test [3], -8.9 ± 14.9%.
Regarding `Nc1ccc(S(=O)(=O)c2ccc(N)cc2)cc1` [Dapsone], the inhibition at 20 µM in test [1] was -8.6 ± 4.3%; in test [2] it was -9.8 ± 4.4%; in test [3], 13.4 ± 4.4%. The inhibition at 200 µM is -27.2 ± 4.2% in test [1], -24.7 ± 3.1% in test [2] and -11.8 ± 3.7% in test [3].
Consider `CNCCCN1c2ccccc2CCc2ccccc21` [Desipramine], for which the results for the inhibition at 20 µM in test [1], in test [2] and in test [3] were -10.8 ± 2.3%, -10.3 ± 2.1% and -0.7 ± 3.1%, respectively. Moreover, the inhibition at 200 µM was 8.3 ± 6.7% in test [1], 11.6 ± 7.2% in test [2] and -37.6 ± 11.8% in test [3].
As to `COc1ccc2c(c1)[C@]13CCCC[C@@H]1[C@H](C2)N(C)CC3` [Dextromethorphan], the inhibition at 20 µM in test [1] was 7.3 ± 1.9%; in test [2] it was -0.5 ± 5.8%; in test [3] it was -3.3 ± 0.3%. Also, the inhibition at 200 µM in test [1] is 2.9 ± 3.4%; in test [2], 3.1 ± 0.7%; in test [3], 6.2 ± 3.4%.
Regarding `O=C(O)Cc1ccccc1Nc1c(Cl)cccc1Cl` [Diclofenac], the inhibition at 20 µM in test [1] is -15.9 ± 2.5%; in test [2] it was -15.1 ± 2.1%; in test [3], 26.1 ± 5.3%. Besides, the inhibition at 200 µM in test [1] was -91.4 ± 5%; in test [2], -23.1 ± 2.2%; in test [3] it was -21.2 ± 2.8%.
For `O=C(O)c1cc(-c2ccc(F)cc2F)ccc1O` [Diflunisal], the inhibition at 20 µM in test [1] is 26.6 ± 0.9%; in test [2], 27.9 ± 1%; in test [3], -42.4 ± 4.5%. Further, the inhibition at 200 µM in test [1] is -20.5 ± 3.3%; in test [2], -20 ± 0.5%; in test [3], 10 ± 2.1%.
As for `C[C@H]1O[C@@H](O[C@H]2[C@@H](O)C[C@H](O[C@H]3[C@@H](O)C[C@H](O[C@H]4CC[C@@]5(C)[C@H](CC[C@@H]6[C@@H]5CC[C@]5(C)[C@@H](C7=CC(=O)OC7)CC[C@]65O)C4)O[C@@H]3C)O[C@@H]2C)C[C@H](O)[C@@H]1O` [Digitoxin], the inhibition at 20 µM in test [1] is -7.2 ± 8.2%; in test [2], -7.2 ± 2.7%; in test [3], 4.3 ± 3.3%. Besides, the inhibition at 200 µM is -14.1 ± 4.2% in test [1], -12.6 ± 2.5% in test [2] and 21.5 ± 2.5% in test [3].

(Values after paper PMC9217908, “Screening of commonly prescribed drugs for effects on the CAT1-mediated transport of L-arginine and arginine derivatives” (Amino Acids, 2022).)
